These results are taken from paper PMC4674339 (European journal of medicinal chemistry, 2015).

Like-named read-outs stand apart in the source and are kept apart here.

One assay relates to P2Y1. To be noted: read-out: EC50 toward P2Y1; functional assay; cited from earlier work.
The test system of the next assay is P2Y12. To be noted: read-out: EC50 toward P2Y12; functional assay; cited from earlier work.
Assay [1] concerns ADP induced human platelet aggregation. The assay can be described thus: ADP-induced human platelet aggregation, 96-well microplate method. In kind it is cell-based.
In assay [2] the target is T1, platelet P2X1 receptors (Homo sapiens, UniProt P51575).
T1 sequence (P51575 1-399): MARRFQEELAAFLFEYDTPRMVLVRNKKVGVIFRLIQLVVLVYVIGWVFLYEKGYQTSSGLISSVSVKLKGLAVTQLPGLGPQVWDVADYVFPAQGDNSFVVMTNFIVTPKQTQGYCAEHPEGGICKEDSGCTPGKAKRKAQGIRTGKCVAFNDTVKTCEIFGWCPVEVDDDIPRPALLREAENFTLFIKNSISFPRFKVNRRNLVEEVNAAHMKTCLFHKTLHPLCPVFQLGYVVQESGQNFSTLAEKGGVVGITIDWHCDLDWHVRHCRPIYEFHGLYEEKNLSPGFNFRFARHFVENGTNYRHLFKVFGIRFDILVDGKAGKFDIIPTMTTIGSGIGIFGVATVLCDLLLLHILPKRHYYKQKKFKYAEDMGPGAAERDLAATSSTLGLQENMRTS
The assay can be described thus: P2X1-mediated entry of extracellular Ca2+. The class given is cell-based.

Assay [3] has as its target T1, platelet P2X1 receptors. To be noted: cited from earlier work.
The target in assay [4] is human platelet P2Y1 receptors (Homo sapiens, UniProt P47900). Conditions: read-out: P2Y1 inhibition IC50; cited from earlier work.
human platelet P2Y1 receptors, sequence (P47900 whole entry): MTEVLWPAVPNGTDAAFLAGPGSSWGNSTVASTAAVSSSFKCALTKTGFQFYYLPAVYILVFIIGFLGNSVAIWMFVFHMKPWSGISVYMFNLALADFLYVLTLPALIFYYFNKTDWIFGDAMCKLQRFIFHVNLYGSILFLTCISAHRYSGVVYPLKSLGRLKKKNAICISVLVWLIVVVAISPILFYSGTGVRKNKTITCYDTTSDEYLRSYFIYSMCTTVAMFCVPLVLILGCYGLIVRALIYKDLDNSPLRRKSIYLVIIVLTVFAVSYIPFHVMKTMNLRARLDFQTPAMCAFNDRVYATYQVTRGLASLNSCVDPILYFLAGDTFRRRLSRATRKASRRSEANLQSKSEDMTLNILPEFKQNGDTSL
Assay [5] has as its target T2, human platelet P2Y12 receptors (Homo sapiens, UniProt Q9H244). To be noted: cited from earlier work.
The target in assay [6] is T2, human platelet P2Y12 receptors. The assay can be described thus: P2Y12-mediated VASP phosphorylation assay. The class given is cell-based.
The mark [7] stands for this setting: read-out: IC50, nM (95% Confidence Interval), no pre-incubation, 3 μM ADP.
Setting [8] is: read-out: IC50, nM (95% Confidence Interval), pre-incubation with test compound, 5 μM ADP.
[9] abbreviates: read-out: IC50, nM (95% Confidence Interval), pre-incubation with test compound, 20 μM ADP.

T2 sequence (Q9H244 whole entry): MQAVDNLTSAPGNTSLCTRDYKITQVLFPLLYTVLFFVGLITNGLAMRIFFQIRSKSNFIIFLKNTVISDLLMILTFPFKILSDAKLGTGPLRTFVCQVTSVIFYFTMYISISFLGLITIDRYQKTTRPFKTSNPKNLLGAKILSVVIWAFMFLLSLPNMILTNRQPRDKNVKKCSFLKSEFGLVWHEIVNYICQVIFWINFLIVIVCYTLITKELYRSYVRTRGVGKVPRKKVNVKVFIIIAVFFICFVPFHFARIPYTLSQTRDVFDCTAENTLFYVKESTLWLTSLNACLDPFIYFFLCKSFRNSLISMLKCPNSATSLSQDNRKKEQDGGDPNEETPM

For orientation: EC50 means the midpoint of the concentration-response curve. Regarding “2-methylthioadenosine 5′-diphosphate [Compound 2-MeSADP]”, the EC50 was 6 nM with P2Y1 and 0.3 nM with P2Y12.

In general, IC50 refers to the concentration at which inhibition is half-maximal. As for `Nc1ncnc2c1ncn2[C@@H]1O[C@H](COP(=O)(S)OP(=O)(O)C(Cl)P(=O)(O)OP(=O)(S)OC[C@H]2O[C@@H](n3cnc4c(N)ncnc43)[C@H](O)[C@@H]2O)[C@@H](O)[C@H]1O` (mixture of isomers) [Compound 1, reference compound], the IC50 in assay [1] (setting [7]) is 437 nM; in assay [1] (setting [8]) it was 757 nM; in assay [1] (setting [9]) it was 7680 nM.

Take `CSc1nc(N)c2ncn([C@@H]3O[C@H](COP(=O)(S)OP(=O)(O)OP(=O)(O)OP(=O)(S)OC[C@H]4O[C@@H](n5cnc6c(N)nc(SC)nc65)[C@H](O)[C@@H]4O)[C@@H](O)[C@H]3O)c2n1` (mixture of isomers) [Compound 3, P^1,P^4-di-(2-methylthio-5′-adenosine) P^1,P^4-dithiotetraphosphate]: the IC50 in assay [1] (setting [7]) was 61.8 nM; in assay [1] (setting [8]), 70.3 nM; in assay [1] (setting [9]), 731 nM.

Turning to `CCSc1nc(N)c2ncn([C@@H]3O[C@H](COP(=O)(S)OP(=O)(O)C(Cl)P(=O)(O)OP(=O)(S)OC[C@H]4O[C@@H](n5cnc6c(N)nc(SCC)nc65)[C@H](O)[C@@H]4O)[C@@H](O)[C@H]3O)c2n1` (mixture of isomers) [Compound 6, P^1,P^4-di-(2-ethylthio-5′-adenosine) P^1,P^4-dithio-P^2,P^3-chloromethylenetetraphosphate], the IC50 in assay [1] (setting [7]) turned out to be 46.1 nM; in assay [1] (setting [8]) it was 8.48 nM; in assay [1] (setting [9]) it was 13.4 nM.

Consider `CCCSc1nc(N)c2ncn([C@@H]3O[C@H](COP(=O)(S)OP(=O)(O)C(Cl)P(=O)(O)OP(=O)(S)OC[C@H]4O[C@@H](n5cnc6c(N)nc(SCCC)nc65)[C@H](O)[C@@H]4O)[C@@H](O)[C@H]3O)c2n1` (mixture of isomers) [Compound 7, P^1,P^4-di-(2-propylthio-5′-adenosine) P^1,P^4-dithio-P^2,P^3-chloromethylenetetraphosphate], for which the IC50 in assay [1] (setting [7]) amounted to 113 nM; in assay [1] (setting [8]), 23.4 nM; in assay [1] (setting [9]), 44.6 nM.

For `Nc1nc(SCCC(F)(F)F)nc2c1ncn2[C@@H]1O[C@H](COP(=O)(S)OP(=O)(O)C(Cl)P(=O)(O)OP(=O)(S)OC[C@H]2O[C@@H](n3cnc4c(N)nc(SCCC(F)(F)F)nc43)[C@H](O)[C@@H]2O)[C@@H](O)[C@H]1O` (mixture of isomers) [Compound 8, P^1,P^4-di-(2-(3,3,3-trifluoropropylthylthio)-5′-adenosine) P^1,P^4-dithio-P^2,P^3-chloromethylenetetraphosphate], the IC50 in assay [1] (setting [7]) worked out at 144 nM; in assay [1] (setting [8]) it was 15 nM; in assay [1] (setting [9]), 26.6 nM.

On to `CCCCCSc1nc(N)c2ncn([C@@H]3O[C@H](COP(=O)(S)OP(=O)(O)C(Cl)P(=O)(O)OP(=O)(S)OC[C@H]4O[C@@H](n5cnc6c(N)nc(SCCCCC)nc65)[C@H](O)[C@@H]4O)[C@@H](O)[C@H]3O)c2n1` (mixture of isomers) [Compound 9, P^1,P^4-di-(2-pentylthio-5′-adenosine) P^1,P^4-dithio-P^2,P^3-chloromethylenetetraphosphate], for which the IC50 in assay [1] (setting [7]) was determined as 1090 nM; in assay [1] (setting [8]), 90.7 nM; in assay [1] (setting [9]), 172 nM.

As for `Nc1nc(Cl)nc2c1ncn2[C@@H]1O[C@H](COP(=O)(S)OP(=O)(O)C(Cl)P(=O)(O)OP(=O)(S)OC[C@H]2O[C@@H](n3cnc4c(N)nc(Cl)nc43)[C@H](O)[C@@H]2O)[C@@H](O)[C@H]1O` (mixture of isomers) [Compound 10, P^1,P^4-di-(2-chloro-5′-adenosine) P^1,P^4-dithio-P^2,P^3-chloromethylenetetra-phosphate], the IC50 in assay [1] (setting [7]) is 140 nM; in assay [1] (setting [8]), 369 nM; in assay [1] (setting [9]) it was 2690 nM.

For `Nc1nc(Br)nc2c1ncn2[C@@H]1O[C@H](COP(=O)(S)OP(=O)(O)C(Cl)P(=O)(O)OP(=O)(S)OC[C@H]2O[C@@H](n3cnc4c(N)nc(Br)nc43)[C@H](O)[C@@H]2O)[C@@H](O)[C@H]1O` (mixture of isomers) [Compound 11, P^1,P^4-di-(2-bromo-5′-adenosine) P^1,P^4-dithio-P^2,P^3-chloromethylenetetra-phosphate], the figures for the IC50 in assay [1] (setting [7]), in assay [1] (setting [8]) and in assay [1] (setting [9]) were 87.8 nM, 173 nM and 936 nM, respectively.

Take `Nc1nc(I)nc2c1ncn2[C@@H]1O[C@H](COP(=O)(S)OP(=O)(O)C(Cl)P(=O)(O)OP(=O)(S)OC[C@H]2O[C@@H](n3cnc4c(N)nc(I)nc43)[C@H](O)[C@@H]2O)[C@@H](O)[C@H]1O` (mixture of isomers) [Compound 12, P^1,P^4-di-(2-iodo-5′-adenosine) P^1,P^4-dithio-P^2,P^3-chloromethylenetetra-phosphate]: the half-maximal inhibitory concentration (IC50) turned out to be 49.9 nM in assay [1] (setting [7]), 48.5 nM in assay [1] (setting [8]) and 416 nM in assay [1] (setting [9]).

For the compound `CNc1ncnc2c1ncn2[C@@H]1O[C@H](COP(=O)(S)OP(=O)(O)C(Cl)P(=O)(O)OP(=O)(S)OC[C@H]2O[C@@H](n3cnc4c(NC)ncnc43)[C@H](O)[C@@H]2O)[C@@H](O)[C@H]1O` (mixture of isomers) [Compound 13, P^1,P^4-di-(N^6-methyl-5′-adenosine) P^1,P^4-dithio-P^2,P^3-chloromethylenetetraphosphate], the values for the IC50 in assay [1] (setting [7]), in assay [1] (setting [8]) and in assay [1] (setting [9]) were 5870 nM, 10700 nM and 37200 nM, respectively.

Consider `CCCNc1ncnc2c1ncn2[C@@H]1O[C@H](COP(=O)(S)OP(=O)(O)C(Cl)P(=O)(O)OP(=O)(S)OC[C@H]2O[C@@H](n3cnc4c(NCCC)ncnc43)[C@H](O)[C@@H]2O)[C@@H](O)[C@H]1O` (mixture of isomers) [Compound 14, P^1,P^4-di-(N^6-propyl-5′-adenosine) P^1,P^4-dithio-P^2,P^3-chloromethylenetetraphosphate], for which the figures for the concentration for half-maximal inhibition (IC50) in assay [1] (setting [7]), in assay [1] (setting [8]) and in assay [1] (setting [9]) were 3930 nM, 12000 nM and 22400 nM, respectively. For the same compound, at platelet P2X1 receptors [2] (read-out: P2X1 activation %±SEM), the activation at 1 µM is -0.01 ± 0.91%.

As to `CNc1nc(SC)nc2c1ncn2[C@@H]1O[C@H](COP(=O)([S-])OP(=O)([O-])C(Cl)P(=O)([O-])OP(=O)([S-])OC[C@H]2O[C@@H](n3cnc4c(NC)nc(SC)nc43)[C@H](O)[C@@H]2O)[C@@H](O)[C@H]1O.[Na+].[Na+].[Na+].[Na+]` (mixture of isomers) [Compound 15, P^1,P^4-di-(2-methylthio-N^6-methyl-5′-adenosine) P^1,P^4-dithio-P^2,P^3-chloromethylenetetraphosphate], the IC50 in assay [1] (setting [7]) was 616 nM. Also, the “P2X1 agonist activity” value at platelet P2X1 receptors [2] is given as “effective P2X1 agonist”.

Turning to `CSc1nc(N)c2ncn([C@@H]3O[C@H](COP(=O)(S)OP(=O)(O)C(Cl)(Cl)P(=O)(O)OP(=O)(S)OC[C@H]4O[C@@H](n5cnc6c(N)nc(SC)nc65)[C@H](O)[C@@H]4O)[C@@H](O)[C@H]3O)c2n1` (mixture of isomers) [Compound 16, P^1,P^4-di-(2-methylthio-5′-adenosine) P^1,P^4-dithio-P^2,P^3-dichloromethylenetetraphosphate], in assay [1] (setting [7]), the IC50 amounted to 295 nM.

With `Nc1ncnc2c1ncn2[C@@H]1O[C@H](COP(=O)(O)OP(=O)(O)O)[C@@H](O)[C@H]1O` [ADP, adenosine diphosphate], the results for the EC50 with P2Y1 and in the assay with P2Y12 were 8000 nM and 69 nM, respectively.

Consider `Nc1ncnc2c1ncn2[C@@H]1O[C@H](COP(=O)(O)OP(=O)(O)OP(=O)(O)OP(=O)(O)OC[C@H]2O[C@@H](n3cnc4c(N)ncnc43)[C@H](O)[C@@H]2O)[C@@H](O)[C@H]1O` [Ap4A, P^1,P^4-Di(adenosine-5′) tetraphosphate], for which the “P2X1 agonist activity” value on platelet P2X1 receptors [3] is “effective P2X1 receptor agonist”. Besides, the IC50 is 32500 nM in assay [4] and above 250000 nM in assay [5] (read-out: P2Y12 inhibition IC50). The “P2Y12 antagonist character” value in assay [5] is on record as “partial antagonist”.

For `CSc1nc(N)c2ncn([C@@H]3O[C@H](COP(=O)([O-])OP(=O)([O-])OP(=O)([O-])OP(=O)([O-])OC[C@H]4O[C@@H](n5cnc6c(N)nc(SC)nc65)[C@H](O)[C@@H]4O)[C@@H](O)[C@H]3O)c2n1.[Na+].[Na+].[Na+].[Na+]` [Compound 2, P^1,P^4-di-(2-Methylthio-5′-adenosine) tetraphosphate], the half-maximal inhibitory concentration (IC50) came out at 71.3 nM in assay [1] (setting [7]), 1020 nM in assay [1] (setting [8]) and 3950 nM in assay [1] (setting [9]). Further, the “P2Y12 antagonist character” value in assay [6] is “full antagonist”.

Take `CSc1nc(N)c2ncn([C@@H]3O[C@H](COP(=O)(O)OP(=O)(O)C(Cl)P(=O)(O)OP(=O)(O)OC[C@H]4O[C@@H](n5cnc6c(N)nc(SC)nc65)[C@H](O)[C@@H]4O)[C@@H](O)[C@H]3O)c2n1` (some centres unmarked) [Compound 4, P^1,P^4-di-(2-methylthio-5′-adenosine) P^2,P^3-chloromethylenetetraphosphate]: the IC50 in assay [1] (setting [7]) worked out at 33.1 nM; in assay [1] (setting [8]), 8.89 nM; in assay [1] (setting [9]) it was 32.6 nM.

Regarding `CNc1ncnc2c1ncn2[C@H]1C[C@H](OP(=O)(O)O)[C@@H](COP(=O)(O)O)O1` [MRS2179, reference compound], in assay [6] (3 μM ADP, VASP phosphorylation, human blood), the “P2Y12 inhibition IC50±SEM” value was “Not inhibitor”.
